Experimental data from patent publication US20220062240A1, “METHODS OF TREATING CANCER USING A CLK INHIBITOR” (BioSplice Therapeutics, Inc., priority 2018, published 2022).
Like-named read-outs stand apart in the source and are kept apart here. One block for each compound: values may come before it.

Key:
all 50 cell lines = assay: CellTiter-Glo Viability Assay, average across all cell lines; format: cell-based; details: Homo sapiens; across all 50 cell lines; read-out: average EC50 for inhibition of cancer cell proliferation
Method in brief: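 Cells were plated at 300-3,000 per well in their own media, then treated with compound in duplicate, with DMSO wells as controls. After four days at 37° C and 5% CO2, CellTiter-Glo was added, and luminescence was read. EC50s were fitted.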

CLK2 = molecular target: T1, CLK2 (Homo sapiens, UniProt P49760); assay: CLK2 kinase activity assay (Z-lyte, Ser/Thr 6 peptide); format: biochemical; details: recombinant CLK2 kinase, ATP 60 μM; read-out: EC50
T1 construct: purchased Thermo Fisher (Life Technologies), Z'-LYTE Kinase Assay Kits
Description: All reactions were performed in duplicate.

[1] = tested on: colorectal cancer (6 cell lines); assay: CellTiter-Glo Viability Assay, colorectal cancer; format: cell-based; details: Homo sapiens, inhibition of cancer cell proliferation
[2] = tested on: liver cancer (3 cell lines); assay: CellTiter-Glo Viability Assay, liver cancer; format: cell-based; details: Homo sapiens, inhibition of cancer cell proliferation
[3] = tested on: pancreatic cancer (8 cell lines); assay: CellTiter-Glo Viability Assay, pancreatic cancer; format: cell-based; details: Homo sapiens, inhibition of cancer cell proliferation
[4] = tested on: haematopoietic & lymphoid tumors (13 cell lines); assay: CellTiter-Glo Viability Assay, haematopoietic & lymphoid tumors; format: cell-based; details: Homo sapiens, inhibition of cancer cell proliferation
[5] = tested on: ovarian cancer (4 cell lines); assay: CellTiter-Glo Viability Assay, ovarian cancer; format: cell-based; details: Homo sapiens, inhibition of cancer cell proliferation
CLK3 = CLK3 (Homo sapiens, UniProt P49761); assay: CLK3 kinase activity assay (Z-lyte, Ser/Thr 18 peptide)
[6] = tested on: prostate cancer (5 cell lines); assay: CellTiter-Glo Viability Assay, prostate cancer; format: cell-based; details: Homo sapiens
BT-549 = assay: CellTiter-Glo Viability Assay, breast cancer; format: cell-based; details: Homo sapiens, 96 h; BT-549, breast cancer, four days; read-out: EC50
T47D = assay: CellTiter-Glo Viability Assay, breast cancer; format: cell-based; details: Homo sapiens, 96 h, breast cancer, four days, read-out: EC50
ZR-75-1 = assay: CellTiter-Glo Viability Assay, breast cancer; format: cell-based; details: Homo sapiens, 96 h; ZR-75-1, breast cancer, four days; read-out: EC50
HCC1599 = assay: CellTiter-Glo Viability Assay, breast cancer; format: cell-based; details: Homo sapiens, 96 h; HCC1599, breast cancer, four days; read-out: EC50
MCF7 = assay: CellTiter-Glo Viability Assay, breast cancer; format: cell-based; details: Homo sapiens, 96 h; MCF7, breast cancer, four days; read-out: EC50
CAMA1 = assay: CellTiter-Glo Viability Assay, breast cancer; format: cell-based; details: Homo sapiens, CAMA-1, 96 h; CAMA1, breast cancer, four days; read-out: EC50
DU4475 = assay: CellTiter-Glo Viability Assay, breast cancer; format: cell-based; details: Homo sapiens, DU-4475, 96 h; DU4475, breast cancer, four days; read-out: EC50
MDA-MB-231-Luc = assay: CellTiter-Glo Viability Assay, breast cancer; format: cell-based; details: Homo sapiens, 96 h; MDA-MB-231-Luc, breast cancer, four days; read-out: EC50
[7] = tested on: lung cancer (4 cell lines); assay: CellTiter-Glo Viability Assay, lung cancer; format: cell-based; details: Homo sapiens, inhibition of cancer cell proliferation
[8] = HCT-116, HCT116 cell line, read-out: Colorectal cancer, EC50 (μM) HCT116
[9] = HT-29, HT29 cell line, read-out: Colorectal cancer, EC50 (μM) HT29
[10] = SW-620, SW620 cell line, read-out: Colorectal cancer, EC50 (μM) SW620
[11] = DLD-1 cell line, read-out: Colorectal cancer, EC50 (μM) DLD-1
[12] = SW48 cell line, read-out: Colorectal cancer, EC50 (μM) SW48
[13] = SW480 cell line, read-out: Colorectal cancer, EC50 (μM) SW480
[14] = SNU-398, SNU398 cell line, read-out: Liver cancer, EC50 SNU398
[15] = HEPG2 cell line, read-out: Liver cancer, EC50 HEPG2
[16] = PLC/PRF/5 cell line, read-out: Liver cancer, EC50 PLC/PRF/5
[17] = BXPC-3, BxPC3 cell line, read-out: Pancreatic cancer, EC50 BxPC3
[18] = CAPAN-1, Capan1 cell line, read-out: Pancreatic cancer, EC50 Capan1
[19] = Capan-2, Capan2 cell line, read-out: Pancreatic cancer, EC50 Capan2
[20] = MIA PaCa-2 cell line, read-out: Pancreatic cancer, EC50 MIA PaCa-2
[21] = PANC 05.04 cell line, read-out: Pancreatic cancer, EC50 PANC 05.04
[22] = PANC-1 cell line, read-out: Pancreatic cancer, EC50 PANC-1
[23] = UPAFII cell line, read-out: Pancreatic cancer, EC50 UPAFII
[24] = DND41, DND-41 cell line, read-out: Haematopoietic & Lymphoid tumors, EC50 (μM) DND-41
[25] = MV4-11, MV-4-11 cell line, read-out: Haematopoietic & Lymphoid tumors, EC50 (μM) MV-4-11
[26] = Rec1, REC-1 cell line, read-out: Haematopoietic & Lymphoid tumors, EC50 (μM) REC-1
[27] = SU-DHL-4, SUDHL4 cell line, read-out: Haematopoietic & Lymphoid tumors, EC50 (μM) SUDHL4
[28] = HL-60 cell line, read-out: Haematopoietic & Lymphoid tumors, EC50 (μM) HL-60
[29] = JM1 cell line, read-out: Haematopoietic & Lymphoid tumors, EC50 (μM) JM1
[30] = JURKAT, Clone E6-1 cell line, read-out: Haematopoietic & Lymphoid tumors, EC50 (μM) JURKAT, Clone E6-1
[31] = JeKo-1 cell line, read-out: Haematopoietic & Lymphoid tumors, EC50 (μM) JeKo-1
[32] = KASUMI-1 cell line, read-out: Haematopoietic & Lymphoid tumors, EC50 (μM) KASUMI-1
[33] = Loucy cell line, read-out: Haematopoietic & Lymphoid tumors, EC50 (μM) Loucy
[34] = MOLT-4 cell line, read-out: Haematopoietic & Lymphoid tumors, EC50 (μM) MOLT-4
[35] = TF-1 cell line, read-out: Haematopoietic & Lymphoid tumors, EC50 (μM) TF-1
[36] = TOLEDO cell line, read-out: Haematopoietic & Lymphoid tumors, EC50 (μM) TOLEDO
[37] = PA-1, PA1 cell line, read-out: Ovarian cancer, EC50 (μM) PA1
[38] = TOV112D, TOV-112D cell line, read-out: Ovarian cancer, EC50 (μM) TOV-112D
[39] = OV-90 cell line, read-out: Ovarian cancer, EC50 (μM) OV-90
[40] = OVCAR-3 cell line, read-out: Ovarian cancer, EC50 (μM) OVCAR-3
[41] = DU-145, read-out: Prostate cancer EC50 Du-145
[42] = PC-3, PC3 cell line, inhibition of cancer cell proliferation, read-out: Prostate cancer EC50 PC3
[43] = 22Rv1 cell line, inhibition of cancer cell proliferation, read-out: Prostate cancer EC50 22Rv1
[44] = LNCap clone FGC cell line, inhibition of cancer cell proliferation, read-out: Prostate cancer EC50 LNCap clone FGC
[45] = VCaP (Sigma) cell line, inhibition of cancer cell proliferation, read-out: Prostate cancer EC50 VCaP (Sigma)
[46] = A-427, A427 cell line, read-out: Lung cancer, EC50 (μM) A427
[47] = HCC78, HCC-78 cell line, read-out: Lung cancer, EC50 (μM) HCC-78
[48] = NCI-H460 cell line, read-out: Lung cancer, EC50 (μM) NCI-H460
[49] = NCI-H522 cell line, read-out: Lung cancer, EC50 (μM) NCI-H522

T1 sequence (P49760 whole entry): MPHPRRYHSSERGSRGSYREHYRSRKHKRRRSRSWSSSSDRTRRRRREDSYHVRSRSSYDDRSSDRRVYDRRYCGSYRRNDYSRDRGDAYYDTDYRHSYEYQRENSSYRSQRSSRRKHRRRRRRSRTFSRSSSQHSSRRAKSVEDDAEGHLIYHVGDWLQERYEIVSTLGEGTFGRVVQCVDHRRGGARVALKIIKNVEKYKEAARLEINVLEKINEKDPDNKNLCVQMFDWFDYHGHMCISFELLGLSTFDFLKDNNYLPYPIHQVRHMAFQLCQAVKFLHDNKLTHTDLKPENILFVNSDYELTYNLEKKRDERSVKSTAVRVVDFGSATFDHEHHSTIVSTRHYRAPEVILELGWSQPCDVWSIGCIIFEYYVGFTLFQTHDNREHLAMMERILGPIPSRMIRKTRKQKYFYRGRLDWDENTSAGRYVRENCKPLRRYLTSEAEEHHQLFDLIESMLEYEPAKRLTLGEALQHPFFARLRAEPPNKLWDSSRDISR
Chain of CLK3 (P49761 whole entry): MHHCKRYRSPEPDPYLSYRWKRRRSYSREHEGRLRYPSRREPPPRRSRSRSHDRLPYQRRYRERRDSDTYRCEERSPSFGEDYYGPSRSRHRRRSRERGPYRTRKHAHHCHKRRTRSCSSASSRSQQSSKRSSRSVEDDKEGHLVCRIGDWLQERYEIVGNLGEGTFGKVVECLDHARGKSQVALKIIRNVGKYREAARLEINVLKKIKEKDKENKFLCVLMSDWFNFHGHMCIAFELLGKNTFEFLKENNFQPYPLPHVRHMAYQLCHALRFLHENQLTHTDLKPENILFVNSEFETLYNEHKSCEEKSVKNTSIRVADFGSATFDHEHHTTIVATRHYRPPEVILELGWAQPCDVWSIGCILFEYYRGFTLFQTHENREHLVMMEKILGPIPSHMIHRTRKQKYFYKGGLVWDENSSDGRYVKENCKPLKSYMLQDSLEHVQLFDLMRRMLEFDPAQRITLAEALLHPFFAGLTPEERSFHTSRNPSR

EC50 (CLK2): 4.5 nM | EC50 [1, 8]: 0.497 µM | EC50 [1, 9]: 0.574 µM | EC50 [1, 10]: 0.465 µM | EC50 [1, 11]: 0.677 µM | EC50 [1, 12]: 0.153 µM | EC50 [1, 13]: 0.796 µM | EC50 [2, 14]: 167 nM | EC50 [2, 15]: 6400 nM | EC50 [2, 16]: 1560 nM | EC50 [3, 17]: 1230 nM | EC50 [3, 18]: 1030 nM | EC50 [3, 19]: 937 nM | EC50 [3, 20]: 296 nM | EC50 [3, 21]: 2110 nM | EC50 [3, 22]: 808 nM | EC50 [3, 23]: 547 nM | EC50 [4, 24]: 1 µM | EC50 [4, 25]: 0.204 µM | EC50 [4, 26]: 0.192 µM | EC50 [4, 27]: 0.527 µM | EC50 [4, 28]: 1.28 µM | EC50 [4, 29]: 0.158 µM | EC50 [4, 30]: 1.19 µM | EC50 [4, 31]: 0.32 µM | EC50 [4, 32]: 0.517 µM | EC50 [4, 33]: 0.614 µM | EC50 [4, 34]: 1.45 µM | EC50 [4, 35]: 2.67 µM | EC50 [4, 36]: 0.274 µM | EC50 [5, 37]: 1.05 µM | EC50 [5, 38]: 0.873 µM | EC50 [5, 39]: 1.88 µM | EC50 [5, 40]: 0.569 µM | EC50 (CLK3): 21.4 nM | EC50 [6, 41]: 772 nM | EC50 [6, 42]: 907 nM | EC50 [6, 43]: 532 nM | EC50 [6, 44]: 1190 nM | EC50 [6, 45]: 728 nM | EC50 (BT-549): 1030 nM | EC50 (T47D): 7190 nM | EC50 (ZR-75-1): 1440 nM | EC50 (HCC1599): 2300 nM | EC50 (MCF7): 1900 nM | EC50 (CAMA1): 1410 nM | EC50 (DU4475): 540 nM | EC50 (MDA-MB-231-Luc): 1220 nM | EC50 [7, 46]: 0.841 µM | EC50 [7, 47]: 1.29 µM | EC50 [7, 48]: 0.697 µM | EC50 [7, 49]: 0.33 µM
SMILES: CN1CCC(Sc2ccc3cnc(NC(=O)c4ccnc(SC5CCN(C)CC5)c4)cc3c2)CC1 [Compound 88]
EC50 (all 50 cell lines): 1150 nM

EC50 (CLK2): 11.2 nM | EC50 [1, 8]: 0.06 µM | EC50 [1, 9]: 0.171 µM | EC50 [1, 10]: 0.047 µM | EC50 [1, 11]: 0.131 µM | EC50 [1, 12]: 0.023 µM | EC50 [1, 13]: 0.061 µM | EC50 [2, 14]: 55 nM | EC50 [2, 15]: 164 nM | EC50 [2, 16]: 371 nM | EC50 [3, 17]: 46 nM | EC50 [3, 18]: 114 nM | EC50 [3, 19]: 151 nM | EC50 [3, 20]: 60 nM | EC50 [3, 21]: 140 nM | EC50 [3, 22]: 217 nM | EC50 [3, 23]: 106 nM | EC50 [4, 24]: 0.106 µM | EC50 [4, 25]: 0.008 µM | EC50 [4, 26]: 0.022 µM | EC50 [4, 27]: 0.079 µM | EC50 [4, 28]: 0.246 µM | EC50 [4, 29]: 0.06 µM | EC50 [4, 30]: 0.226 µM | EC50 [4, 31]: 0.04 µM | EC50 [4, 32]: 0.053 µM | EC50 [4, 33]: 0.105 µM | EC50 [4, 34]: 0.125 µM | EC50 [4, 35]: 0.08 µM | EC50 [4, 36]: 0.066 µM | EC50 [5, 37]: 0.23 µM | EC50 [5, 38]: 0.101 µM | EC50 [5, 39]: 0.361 µM | EC50 [5, 40]: 0.111 µM | EC50 (CLK3): 21.7 nM | EC50 [6, 41]: 123 nM | EC50 [6, 42]: 93 nM | EC50 [6, 43]: 102 nM | EC50 [6, 44]: 332 nM | EC50 [6, 45]: 98 nM | EC50 (BT-549): 116 nM | EC50 (T47D): 281 nM | EC50 (ZR-75-1): 216 nM | EC50 (HCC1599): 125 nM | EC50 (MCF7): 360 nM | EC50 (CAMA1): 433 nM | EC50 (DU4475): 95 nM | EC50 (MDA-MB-231-Luc): 202 nM | EC50 [7, 46]: 0.13 µM | EC50 [7, 47]: 0.136 µM | EC50 [7, 48]: 0.243 µM | EC50 [7, 49]: 0.091 µM
SMILES: CN1CCC(C(=O)Nc2c[nH]nc2-c2nc3c(-c4ccc(F)s4)cccc3[nH]2)CC1 [Compound 90]
EC50 (all 50 cell lines): 142 nM
